Measurements as given in US9051598B2, “Specific detection of D-glucose by a tetraphenylethene-base fluorescent sensor” (THE HONG KONG UNIVERSITY OF SCIENCE AND TECHNOLOGY, priority 2011, dated 2015).
Like-named read-outs stand apart in the source and are kept apart here.

Legend:
[1] = cited from earlier work
[2] = cited from earlier work; remark: listed apart in the source
[3] = FL response of TPE boronic acid probe to D-glucose in carbonate buffer
Description: The present subject matter in one embodiment relates to a selective detection of D-glucose (D-Glu) by TPEDB probe in a sample with its fluorescence enhancement. The concentration or level of D-Glu detectable in a sample is not particularly limited, but is preferably about 0.2 mM or more. […] When 0.2 mM Glu was added, however, the FL spectrum of TPEDB was intensified. The FL intensity increased with an increase in the amount of Glu. At [Glu]=5 mM, the solution of TPEDB became very emissive, with an intensity ca. 5.4-fold higher than that in the absence of Glu.
Into a 100 mL volumetric flask were added 1.120 g of K2CO3, 0.190 g of KHCO3 and 80 mL of deionized water. After adding 3 mL of DMSO into the carbonate buffer, 1 mL of the stock solution of TPEDB in DMSO (10 mM) was added under stirring. The volume of the solution was increased to 100 mL by adding an appropriate amount of deionized water. The resultant solution of TPEDB (0.1 mM) in the carbonate buffer (pH 10.5) was stirred for 15 min before use.
Into a 25 mL volumetric flask was added 90 mg of a saccharide (Glu, Fru, Gal or Man) and 25 mL of deionized water. An aliquot of the resultant stock solution (20 mM) was diluted in another volumetric flask to obtain a sample solution with a desired concentration (2.0 mM, 0.20 mM, 20 μM or 2.0 μM).
An aliquot (2.0 mL) of the stock solution of TPEDB (0.1 mM) in the carbonate buffer containing 4 vol % DMSO and 2.0 mL of the stock solution of Glu (20 mM) were added into a 10 mL volumetric flask. After shaking for a few seconds, a solution of TPEDB (50 μM) with 10 mM of Glu in the carbonate buffer containing 2 vol % DMSO was obtained. The solution was allowed to stand for 30 min before its FL measurement.
To prepare a solution of TPEDB (50 μM) with 8 mM of Glu in the carbonate buffer containing 2 vol % DMSO, 1.6 mL of the stock solution of Glu (20 mM) and 0.4 mL of deionized water were added to 2.0 mL of a stock solution of TPEDB (0.1 mM) in the carbonate buffer containing 4 vol % DMSO.

[4] = FL response of probe to D-fructose in carbonate buffer
[5] = FL response of TPEDB to Glu in the presence of a saccharide interferent
Description: In the presence of Fru, the FL spectrum of TPEDB was gradually intensified by the addition of Glu, but the rate of increase in the intensity was lower because of the competition between Glu and Fru to bind with TPEDB. Similarly, Gal and Man interfered with the FL response of TPEDB to Glu, although the effects were smaller.
Solutions of Glu (40 mM-4.0 μM), Fru (0.4 mM), Gal (0.4 mM) and Man (0.4 mM) in deionized water were prepared. An aliquot (2.0 mL) of the solution of TPEDB (0.1 mM) in the carbonate buffer containing 4 vol % DMSO was added into a 10 mL volumetric flask, followed by the addition of 1.0 mL of a solution of Fru (0.4 mM) and 1.0 mL of a solution of Glu (40 mM). After shaking for a few seconds, a solution of TPEDB (50 μM) with 10 mM of Glu and 0.1 mM of Fru in the carbonate buffer containing 2% DMSO was obtained. The solution was allowed to stand for 30 min before its FL measurement. The solution of TPEDB and Glu containing another saccharide (Gal or Man) was prepared by similar procedures.

[6] = FL intensity of TPEDB in Britton-Robinson buffers at different pH; type: physicochemical
Description: (§1) The light emission of TPEDB started to decrease in intensity when the pH of the buffer was raised to >8.61 and became very weak at pH≧9.74. Since the pKa of PBA is ca. 9, TPEDB was ionized by the alkaline medium and became soluble in the buffers with high pH. The solutions of TPEDB were virtually nonfluorescent, while its aggregates were highly emissive, proving that TPEDB, like its parent form TPE, is AIE-active.
Into a 100 mL volumetric flask were added 4.0 mg NaOH and 80 mL of deionized water. After adding 3 mL of DMSO into the carbonate buffer, 1 mL of the stock solution of TPEDB in DMSO (10 mM) was added under stirring. The volume of the solution was increased to 100 mL by adding an appropriate amount of deionized water. The resultant solution of TPEDB (0.1 mM) in the NaOH solution (0.001M) containing 4 vol % DMSO was stirred for 15 min before use.
Into a 100 mL volumetric flask were added 4.611 H3PO4, 2.402 g CH3COOH, and 2.473 g B(OH)3, and the volume of the solution was increased to 100 mL by adding appropriate amount of deionized water. The resultant solution of the acid mixture (0.4 M) was stirred for 15 min before use. Into a 100 mL volumetric flask was added 1.600 g NaOH, and the volume of the solution was increased to 100 mL by adding appropriate amount of deionized water. The resultant solution of base (0.4 M) was stirred for 15 min before use. An aliquot (0.4 mL) of the solution of acid mixture (0.4 M) and appropriate amount of the solution of NaOH (0.4 M) from 0 mL to 1.6 mL were added into a 10 mL volumetric flask. The volume of the solution was increased to 2.0 mL by adding an appropriate amount of deionized water. The resultant standard Britton-Robinson buffer (0.08 M) with various pH was left to stand for a few minutes before use.
An aliquot (2.0 mL) of the stock solution of TPEDB (0.1 mM) in the NaOH solution (0.001M) containing 4 vol % DMSO and 2.0 mL of the standard Britton-Robinson buffer (0.08 M) with various pH were added into a 10 mL volumetric flask. After shaking for a few seconds, solutions of TPEDB (50 μM) with various pH in the Britton-Robinson buffer containing 2 vol % DMSO were obtained. The solutions were allowed to stand for 30 min, and their FL spectra were measured before the pH values were measured using pH-meter.

[7] = Miscibility / solubility of TPEDB in aqueous media; type: physicochemical
Excerpt: as §1

[8] = Detection of Glu in artificial urine by TPEDB; conditions: TPEDB 50 μM, carbonate buffer with artificial urine
Description: To explore the potential of TPEDB for real-world applications, the possibility of using TPEDB for detection of Glu in urine was tested. […] The profile of the I/I0 versus [Glu] plot for the urine Glu, however, was different from that for the “pure” Glu (in the carbonate buffer without urine) in the high-[Glu] region. Although the exact reason for this is unclear at the present time, it may be caused by the interactions of urea, α-hydroxycarboxylic acids, and salts in the urine with the boronate units of TPEDB.
An artificial urine was prepared according to the recipe reported by Keevil et al. and Whitesides et al (C. W. Keevil, et al, Lett. Appl. Microbiol. 1997. 24, 203; G. M. Whitesides, et al, Proc. Natl. Acad. Sci. U.S.A. 2008, 105, 19606). 1.1 mM Lactic acid, 2.0 mM citric acid, 25 mM sodium bicarbonate, 170 mM urea, 2.5 mM calcium chloride, 90 mM sodium chloride, 2.0 mM magnesium sulfate, 7.0 mM potassium dihydrogen phosphate, 7.0 mM dipotassium hydrogen phosphate, 10 mM sodium sulfate, and 25 mM ammonium chloride were mixed in deionized water. The pH value of the solution was adjusted to 6.0 by the addition of 1.0 M hydrochloric acid. […]
An aliquot (1 mL) of the artificial urine solution with a desired concentration of Glu was added to 2 mL solution of TPEDB (100 μM) in the carbonate buffer containing 4 vol % DMSO. […] FL spectrum of the mixture was measured after stirring for 30 min.

[9] = FL response of probe to D-galactose in carbonate buffer; conditions: TPEMB 10 μM, 10 vol % DMSO, any amount
[10] = FL response of probe to D-mannose in carbonate buffer; conditions: TPEMB 10 μM, 10 vol % DMSO, any amount
[11] = Britton-Robinson buffer, 2 vol % DMSO

## OB(O)c1ccccc1 [PBA, phenylboronic acid]
[1]
  pKa: ca. 9
[2]; Fru
  Ka,sugar/Ka,Glu: 34.8
[2]; Gal
  Ka,sugar/Ka,Glu: 3.3
[2]; Man
  Ka,sugar/Ka,Glu: 2.8

## OB(O)c1ccc(C(=C(c2ccccc2)c2ccc(B(O)O)cc2)c2ccccc2)cc1 [TPEDB, (1,2-diphenylethene-1,2-diyl)bis(1,4-phenylene)-1,1′-diboronic acid]
[3]; TPEDB 50 μM, carbonate buffer pH 10.5
  Glu concentration at which the FL spectrum of TPEDB was intensified (below it almost no change): 0.2 mM
[3]; TPEDB 50 μM, carbonate buffer pH 10.5, intensity decreases above
  [Glu] at which FL intensity reaches its maximum: 5 mM
[4]; 10 mM Fru, TPEDB in carbonate buffer
  Change of emission spectrum on addition of Fru: only slightly intensified
[5]; 0.1 mM Fru, Gal or Man interferent, TPEDB 50 μM, carbonate buffer
  Interference of the isomeric saccharides to the FL response to Glu: almost no interference
[5]; suggested from interference data
  Affinity order of saccharide to TPEDB: Fru>Gal≈Man>Glu
[6]
  pH below which the luminogen is highly emissive: < 9.0
[6]; [11]
  pH above which light emission started to decrease in intensity: > 8.61
  pH at which light emission became very weak: ≥ 9.74
[6]; pH 4.34
  Emission of aggregates suspended in acidic buffer: strong blue light
[7]; alkaline aqueous media containing small amount of DMSO
  Solubility in alkaline aqueous media: readily soluble
[7]; water
  Miscibility with water: immiscible with water
[8]
  Effect of Glu in artificial urine on FL spectrum: augmented its FL spectrum

## OB(O)c1ccc(C(=C(c2ccccc2)c2ccccc2)c2ccccc2)cc1 [TPEMB, 4-(1,2,2-triphenylvinyl)phenylboronic acid]
[3]; TPEMB 10 μM, carbonate buffer, 10 vol % DMSO, wide [Glu] range
  Change in FL spectrum on addition of Glu: little change
[4]; TPEMB 10 μM, carbonate buffer, 10 vol % DMSO, any amount
  Emission on addition of Fru: remained nonemissive
[9]
  Emission on addition of Gal: remained nonemissive
[10]
  Emission on addition of Man: remained nonemissive
